Experimental findings from US7910586B2, “Compositions and methods for prevention and treatment of amyloid-β peptide-related disorders” (The Rockefeller University, priority 2002, dated 2011) are described below.

The test system of series [1] is N2a cells transfected with the human Swedish APP mutation. Briefly: Aβ generation in N2a cells transfected with human Swedish APP and normal or ΔE9 presenilin 1 (immunoprecipitation, autoradiography, Western blot). In kind it is cell-based, mouse. As to conditions: for Aβ after one hour of treatment: 35S labeled N2a cells expressing human APP-Swedish. The procedure:
N2a cells transfected with the human Swedish APP mutation, and with either normal human presenilin 1 or ΔE9 mutant presenilin 1 (PS1), were used for assays of compound effect on Aβ generation.
Media was added with compound concentration of 0, 10^−9, 10^−8, 10^−7 and 10^−6 M; cells were incubated overnight at 37° C. The next day, cells were incubated with ^35S-methionine and ^35S-cysteine for four hours in the presence of the compound as above.
Media and cells were separately harvested and subjected to immunoprecipitation with antibody 4G8 (Senetek, Napa, Calif.), which recognizes an epitope corresponding to residues 17-28 of Aβ. Antibody 4G8 immunoprecipitates Aβ from media, and Aβ plus full-length APP from cells. After removal of antibody 4G8 and bound Aβ from media, the supernatant was reacted with 22C11 (Chemicon International), an antibody that immunoprecipitates sAPPβ and sAPPα. Immunoprecipitates were subjected to PAGE and resolved by autoradiography according to standard methods. APP metabolites were compared by densitometry according to standard methods.
In other experiments, immunoprecipitation followed by Western blot analysis was carried out on unlabeled (no radioactive label) N2a cells, using standard methods and using 6E10 (Senetek, Napa, Calif.) or 22C11 antibodies for detection.
These immunoprecipitation experiments were repeated using a minimal treatment time, 1 hour instead of overnight.
(In general: In western blotting, separated proteins are transferred to a membrane and probed.)

For series [2], the system named is wild-type 3T3 mouse fibroblasts. As to the kind of experiment: Aβ production in wild-type 3T3 mouse fibroblasts. It counts as cell-based. The note with it: 5 μM or 10 μM STI-571; 0.5 μM or 1.0 μM Compound 1; similar degree as in Abl−/− and N2a cells. The method, then:
(§1) Abl knockout (Abl−/−) 3T3 mouse fibroblasts and wild-type 3T3 mouse fibroblasts (see Liu et al., 1996, Nature 384(6606):273-6) were grown separately and to confluence in 100 mm Corning tissue culture plates. These fibroblast cell lines are permanent cell lines. […] Several other plates were exposed to either 0.5 μM or 1.0 μM Compound 1 (dissolved in DMSO) or to DMSO without Compound 1.
(§2) For the above-described cell cultures, each of the drugs or control solvents was added to a standard culture medium (DMEM+10% FBS+pen/strep) at a dilution of 1:1000 and cultures were then incubated at 37° C. for 2 hours. The contacting of cell cultures and incubation with inhibitors and solvent, as described above, constituted “pretreatment” of cells.
(§3) The first culture medium was then removed and the cell cultures were rinsed with a second culture medium lacking methionine, cysteine and glutamate. The cell cultures were incubated with this culture medium for 30 minutes (to stimulate subsequent uptake of amino acids). Then the second culture medium was exchanged for fresh first culture medium containing ^35S-labeled methionine and cysteine (NEN Express label 50 μl/ml) and unlabeled glutamine (final concentration 2 mM) and with inhibitors as described above, and incubated for 4 hours at 37° C. […]

Series [3] relates to rat embryonic cortical neurons. As to the kind of experiment: Aβ production in rat primary embryonic cortical neuronal cultures. It counts as cell-based.
A further series relates to γ-secretase. Briefly: Isolated γ-secretase activity: Aβ release (ELISA) from membranes of N2a cells expressing recombinant C99. It counts as biochemical, mouse. As to conditions: membranes from N2a cells expressing C99, with ATP; FIG. 4. The procedure: For the assay of isolated γ-secretase activity, membranes were isolated from N2a cells expressing a recombinant γ-secretase substrate, C99, according to the methods of Zhang et al. (2001, Biochemistry 40: 5049-5055). […] Also, to determine whether ATP was primarily responsible for stimulating γ-secretase activity, the previous energy regenerating system was substituted with one designed to sustain concentrations of ATP alone but not GTP. Aβ release from isolated membranes was determined by ELISA (Biosource International, Camarillo, Calif.).

The subject of another series is brain Aβ40, Aβ42 and C99. As to the kind of experiment: Brain Aβ and C99 in wild-type guinea pigs after intrathecal osmotic minipump treatment. In kind it is in vivo, guinea pig. As to conditions: 2.8 mg/kg, 7 days. The method, then: After 7 days of treatment, animals were sacrificed, and their brains homogenized in 25 mM Tris 7.5, 50 mM NaCl, 1 mM DTT, 5 mM EDTA, 1 mM EGTA, and 1× protease inhibitor cocktail (Complete™, Boehringer Biochemicals). Aliquots of brain homogenate were assayed for Aβ peptide by using a sandwich ELISA according the manufacturer's recommendations (Biosource International, Camarillo, Calif.) and for C99 by immunoprecipitation and Western blot analysis using standard methods.

The test system of the next series is mΔe-Notch. Briefly: Notch cleavage in N2a cells transfected with mΔe-Notch. The note with it: at levels that strongly inhibit Aβ-formation; FIGS. 17 and 18. It counts as cell-based, mouse. The text has this:
N2a cells were transfected with a constitutively active truncated form of Notch, mouse “deleted-extracellular” Notch (mΔe-Notch), which supplies a direct substrate for γ-secretase (De Strooper et al., 1999, Nature 398: 518-522).

Series [4] relates to Abl knockout (Abl−/−) 3T3 mouse fibroblasts. As to the kind of experiment: Aβ production in Abl knockout (Abl−/−) 3T3 mouse fibroblasts. As to conditions: 5 μM or 10 μM STI-571; 0.5 μM or 1.0 μM Compound 1; similar degree as in wild-type and N2a cells. It counts as cell-based. The procedure: as §1, §2, §3
Series [5] concerns N2a cells expressing Swedish variant of human APP and the PS1 mutation. As to the kind of experiment: Mass spectrometry (Ciphergen ProteinChip, SELDI-TOF) of Aβ40 and Aβ42 in media from N2a cells. It counts as cell-based, mouse. As to conditions: FIG. 5. The method, then:
Mass spectrometry was carried out on media from N2a cells to detect Aβ40 and Aβ42 peptides using the CiphergenProteinChip System (Ciphergen Biosystems Inc., Fremont, Calif.), which is based on Seldi and time-of-flight mass spectrometry, using standard protocols as set out by the manufacturer. The experimental procedures were the same as those disclosed above for immunoprecipitation/Western blotting, without metabolic labeling. […] Aliquots of detergent treated media were contacted to a metal chip that was previously contacted with an antibody, such as 6E10. The antibody binds human APP metabolites, including Aβ, in the applied sample. Detection of bound antigen followed a laser pulse that dissociated antigen from antibody.
Aβ peptides were resolved graphically as peaks of various heights, situated on an x-axis denoting molecular mass. Thus, Aβ40 and Aβ42 were resolved separately at approximately 4333 and 4519 daltons, respectively. The relative heights or areas under the peaks in a given spectrum denoted the relative concentrations of the detected species. Peaks corresponding to the same species, as conveyed by molecular mass, were compared among different spectra, reflecting different samples, to measure relative quantities of Aβ among a set of samples.

The subject of series [6] is rat embryonic cortical neurons. As to the kind of experiment: Aβ production in rat primary embryonic cortical neuronal cultures. In kind it is cell-based. The note with it: for production of Aβ peptides: normal rat primary neuronal cell cultures; for concentration at which significant reductions in Aβ were observed: primary cortical neuronal cultures, dose response, FIGS. 13 and 14. The text has this:
Cultures of rat embryonic cortical neurons were established from day 18 pregnant SD rats using standard techniques (Gasparini et al., 2001, J. Neurosci. 21(8):2561-2570).
The next day, cells were labeled with ^35S-methionine and cysteine for four hours in the presence of compounds as above. Media and cells were then harvested and subjected to immunoprecipitation with antibody 4G8, to detect Aβ and APP. The media was serially immunoprecipitated first with antibody 4G8 and then antibody 22C11, for detection of secreted Aβ, sAPPP and sAPPα. Immunoprecipitates were subjected to PAGE and resolved by autoradiography; APP metabolites were compared by densitometry.

SMILES strings stand for the structures. Structures can show the parent of a compound that is named as a salt.

One may read the IC50 as the concentration that inhibits the measured activity by half. With `CSc1cccc(Nc2ncc3cc(-c4c(Cl)cccc4Cl)c(=O)n(C)c3n2)c1` [Compound 1], the “Aβ after one hour of treatment” value in series [1] (FIGS. 6 and 7) is listed as “dose-dependent decrease”. Also, the IC50 in series [1] (N2a cells expressing APP and either normal human presenilin 1 or ΔE9 mutant presenilin 1, read-out: IC50 (inhibited total levels of Aβ by 50%)) is less than 1000 nM. Moreover, the Aβ production result in series [2] is recorded as “inhibited”. In series [3], the cytotoxicity result is “not cytotoxic”. Besides, the “Aβ generation in isolated membranes” value with γ-secretase is “dose-dependent decrease”. Besides, in the series on brain Aβ40, Aβ42 and C99, the appearance of animals entry is “healthy and active”. Also, the “full-length βAPP levels” value in the series with brain Aβ40, Aβ42 and C99 (FIG. 16C) is “do not change”. Moreover, the “cleavage of mΔe-Notch to form Notch intracellular domain (NICD)” value in the series on mΔe-Notch is “unaffected”. In [4], the Aβ production result is “inhibited”. For the same compound, in [5], the Aβ40 level result is given as “dramatically reduced” and the Aβ42 level entry was “dramatically reduced”. Further, in series [6], the “production of Aβ peptides” value is “inhibit” and the “concentration at which significant reductions in Aβ were observed” value came out at 0.5 µM. For the same compound, the “secretion of soluble APP-α” value in series [6] (primary neuronal cells cultured from rat brain, FIG. 9) is given as “consistent secretion”. The “levels of Aβ in cells” value in [6] (rat cortical neurons) was “reduced”. In addition, the “levels of Aβ in media” value in series [6] (rat cortical neurons, FIG. 8A, FIG. 10) is on record as “reduced”. In series [6] (rat cortical neurons, FIG. 9), the “total cellular APP” value is recorded as “not reduced significantly” and the “total sAPP” value is “not reduced significantly”.
On to `Cc1ccc(NC(=O)c2ccc(CN3CCN(C)CC3)cc2)cc1Nc1nccc(-c2cccnc2)n1` [STI-571, imatinib mesylate, reference compound], for which, in series [1] (FIGS. 6 and 7), the “Aβ after one hour of treatment” value is on record as “dose-dependent decrease”. In series [1] (intact N2a cells expressing Swedish variant of human APP, FIGS. 6 and 7), the APP levels entry is on record as “do not change”. For the same compound, in series [2], the Aβ production result is “inhibited”. Also, the Aβ production result in [4] was “inhibited”. Also, in series [6], the “production of Aβ peptides” value is reported as “inhibit” and the “concentration at which significant reductions in Aβ were observed” value came to 5 µM.
